Assay in all cases: NCI tumour cell line growth inhibition, 48 h
In test [1] the test system is MCF7 breast.
Test [2] relates to UO-31 renal.
In test [3] the test system is SF-295 CNS.
The subject of test [4] is EKVX NSCLC.
Test [5] has as its system T-47D breast.
Test [6] deals with OVCAR-5 ovarian.
In test [7] the test system is CCRF-CEM leukemia.
Test [8] deals with ACHN renal.
Test [9] deals with K-562 leukemia.
The test system of test [10] is UACC-257 melanoma.

“And” between values parts separate entries of the source, which are not always exact repeats. Identical values can stand only once.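 In this assay, cells in 96-well plates receive the compound at five concentrations for 48 hours. Endpoints are linearly interpolated between the surrounding concentrations. GI50: concentration for 50% inhibition of growth. At the TGI there is no net growth.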 Bounds are passed on as bounds.

For `COc1ccccc1NC(=O)CC(=O)n1nc(C)c(N=Nc2ccccc2Cl)c1C`, the TGI in test [1], in test [2], in test [3], in test [4], in test [5] and in [6] was greater than 100 µM in each case. Besides, the TGI in [7], in test [8], in test [9] and in [10] was greater than 100 µM throughout.
Take `Cc1ccc(-c2nc(/C=N/Nc3cc(C)nc4ccc(Br)cc34)c(C)o2)cc1`: the GI50 in [1] was 1.92 µM; in test [2], 1.65 µM; in [3] it was 2.86 µM; in test [4] it was 9.51 µM; in test [5], 1.94 µM; in test [6], 1.86 µM. The GI50 in test [7] was 2.17 µM; in [8], 1.8 µM; in test [9], 1.93 µM; in [10] it was 2.13 µM. For the same compound, the TGI stood at 3.99 µM in test [1]; 3.08 µM in test [2]; 8.8 µM in test [3]; 21.4 µM in [4]; 3.94 µM in [5]; 3.36 µM in [6]. Also, the TGI stood at 5.51 µM in test [7], 3.21 µM in test [8], 4.58 µM in test [9] and 5.02 µM in test [10].
Regarding `CCc1cccc(NC(=O)Nc2ccc(Oc3ccc4nc(NC(=O)OC)[nH]c4c3)cc2)c1`, the GI50 was 0.654 µM in test [1]; greater than 25 µM in test [2]; 3.4 µM in [3]; greater than 23.9 µM in [4]; 3.56 µM in [5]; 15 µM in [6]. The GI50 in test [7] is 6.2 µM; in test [8], 10.8 µM; in [9] it was 0.153 µM; in test [10], 3.58 µM. Further, the TGI was greater than 6.24 µM in test [1]; greater than 25 µM in test [2]; greater than 20.4 µM in test [3]; greater than 25 µM in test [4]; greater than 15.6 µM in test [5]; greater than 25 µM in test [6]. The TGI in test [7] is greater than 25 µM; in test [8], greater than 25 µM; in test [9], greater than 25 µM; in test [10], greater than 22.3 µM.
In the case of `O=C(Nc1cn[nH]c1-c1nc2ccc(CN3CCOCC3)cc2[nH]1)NC1CC1`, the GI50 was 0.522 µM and 2.07 µM in test [1]; 0.851 µM and 2.33 µM in test [2]; 0.195 µM and 1.09 µM in test [3]; 1.76 µM and > 10 µM in test [4]; 1.82 µM and 9.18 µM in test [5]; 2.78 µM and 6.68 µM in test [6]. For the same compound, the GI50 in [7] was 1.42 µM; in test [8], 2.47 µM and 5.7 µM; in test [9], 0.543 µM and 1.59 µM; in [10] it was 1.72 µM and > 10 µM. Further, the TGI in test [1] was 7.37 µM and > 10 µM; in test [2], greater than 24.6 µM; in [3], 1.5 µM and 4.67 µM; in test [4] it was 9.94 µM and > 10 µM; in [5], 6.95 µM and > 10 µM; in test [6], 9.49 µM and > 10 µM. Moreover, the TGI in [7] was 8.69 µM; in test [8], 17.7 µM and > 10 µM; in test [9] it was greater than 100 µM; in [10], 7.76 µM and > 10 µM.
In the case of `O=c1oc2ccc(Cl)cc2c(=O)n1-c1ccc(F)cc1F`, the GI50 is 2.42 µM in test [1]; 1.22 µM in test [2]; 1.76 µM in [3]; 1.98 µM in test [4]; 1.08 µM in test [5]; 3.43 µM in test [6]. Besides, the GI50 in test [7] is 3.32 µM; in test [8], 2.14 µM; in test [9], 2.03 µM; in test [10] it was 0.45 µM. Moreover, the TGI in [1] was greater than 100 µM; in test [2], 7.97 µM; in test [3] it was 3.55 µM; in [4], 8.04 µM; in test [5] it was 5.27 µM; in test [6], 97.5 µM. For the same compound, the TGI in test [7] was 18.1 µM; in [8], 6.08 µM; in [9] it was greater than 100 µM; in test [10], 4.08 µM.
For `Cc1nc2ccccc2c(/C=C/c2ccccc2)c1C(=O)/C=C/c1ccc(C(F)(F)F)cc1`, the GI50 in test [1] is 0.631 µM; in test [2], 1.07 µM; in [3], 1.67 µM; in test [4], 1.56 µM; in [5] it was 1.18 µM; in test [6] it was 1.93 µM. Also, the GI50 in [7] is 0.381 µM; in test [8], 1.44 µM; in test [9], 0.775 µM; in [10], 1.96 µM. Also, the TGI in test [1] worked out at 2.66 µM; in [2], 2.26 µM; in test [3] it was 3.1 µM; in test [4] it was 3.11 µM; in [5], 3.88 µM; in [6], 4.45 µM. Besides, the TGI in test [7] is greater than 100 µM; in [8] it was 2.75 µM; in [9], greater than 100 µM; in test [10], 4.25 µM.
Take `COc1ccc2nc3c(cc2c1)C(=O)CC(c1ccccc1)C3` (centres undefined): the GI50 is 3.54 µM in [1]; 0.589 µM in test [2]; 0.905 µM in test [3]; 5.81 µM in test [4]; 5.34 µM in test [5]; 6.83 µM in test [6]. For the same compound, the GI50 in test [7] is 0.291 µM; in test [8], 0.853 µM; in [9] it was 0.359 µM; in test [10], greater than 100 µM. In addition, the TGI in test [1] was greater than 100 µM; in test [2], greater than 100 µM; in test [3], 11 µM; in test [4], greater than 100 µM; in [5], greater than 100 µM; in test [6], greater than 100 µM. In addition, the TGI in test [7], in test [8], in [9] and in [10] was greater than 100 µM throughout.
`Cc1ccc2[nH]c(O)c(N=Nc3ccccc3[N+](=O)[O-])c2c1`: the TGI in test [1] was greater than 100 µM; in test [2] it was 9.3 µM; in test [3], greater than 58.8 µM; in [4], 57.3 µM; in [5] it was 14 µM; in test [6] it was greater than 84.3 µM. In addition, the TGI in [7], in test [9] and in test [10] was greater than 100 µM throughout.
For the compound `CN(/N=C/c1ccccc1O)c1ccc2ccccc2n1`, the TGI was 30.9 µM in [1]; 35.2 µM in test [2]; 30.4 µM in [3]; 54.9 µM in test [4]; 50.4 µM in [5]; greater than 100 µM in [6]. Besides, the TGI was greater than 100 µM in test [7], 66.6 µM in [8], greater than 100 µM in test [9] and greater than 100 µM in test [10].

The values above are taken from PubChem BioAssay (NCI).
